Reference: PubChem BioAssay (NCI)
Several values for one entry are separate records, joined by “and”; a condition that tells them apart may be missing. Equal entries are not always repeated.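 96-well plates; 48 h exposure; 5 concentrations. Endpoints by linear interpolation between flanking doses. Not reached: highest tested concentration assigned. At the GI50, growth is halved. TGI: total growth inhibition.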

Assays:
Test in all cases: growth of human tumour cells (NCI), 48 h
COLO 205 colon = system: COLO 205 colon
SF-268 CNS = system: SF-268 CNS
UO-31 renal = system: UO-31 renal
RPMI-8226 leukemia = system: RPMI-8226 leukemia
HS 578T breast = system: HS 578T breast
BT-549 breast = system: BT-549 breast
HCT-116 colon = system: HCT-116 colon
OVCAR-3 ovarian = system: OVCAR-3 ovarian
CAKI-1 renal = system: CAKI-1 renal
T-47D breast = system: T-47D breast

SMILES | GI50 (COLO 205 colon) [µM] | TGI (COLO 205 colon) | GI50 (SF-268 CNS) [µM] | TGI (SF-268 CNS) [µM] | GI50 (UO-31 renal) [µM] | TGI (UO-31 renal) | GI50 (RPMI-8226 leukemia) [µM] | TGI (RPMI-8226 leukemia) | GI50 (HS 578T breast) [µM] | TGI (HS 578T breast) [µM] | GI50 (BT-549 breast) [µM] | TGI (BT-549 breast) [µM] | GI50 (HCT-116 colon) [µM] | TGI (HCT-116 colon) | GI50 (OVCAR-3 ovarian) [µM] | TGI (OVCAR-3 ovarian) | GI50 (CAKI-1 renal) [µM] | TGI (CAKI-1 renal) [µM] | GI50 (T-47D breast) [µM] | TGI (T-47D breast) [µM]
COc1cc(-c2c(C#N)c(N)n3c(nc4ccccc43)c2C#N)cc(Br)c1OC | > 100 | > 100 µM | 77.5 | > 100 | 4.13 | > 100 µM | 6.83 | > 100 µM | 2.71 | > 100 | > 100 | > 100 | 4.77 | > 100 µM |  |  |  |  |  | 
COC(=O)c1cc2c(c(C(=O)OC)c1O)C(=O)C=CC2=O | > 9.1 | > 9.1 µM and 98.8 µM | > 9.1 | > 55.2 | > 9.1 | > 56.9 µM | 1.79 | > 9.1 µM and 5.6 µM |  |  |  |  | 3.49 | > 9.1 µM and 16.9 µM | > 9.1 | > 60.9 µM | > 100 | > 100 |  | 
CCCCCCCCCCC(O)C1CCC(C2CCC(C(O)CCCCC(O)CCCCCC(O)CC3=CC(C)OC3=O)O2)O1 (centres undefined) | 3.09 | 9.15 µM and > 25 µM | > 25 | > 25 | 1.74 | 9.95 µM and > 25 µM | 2 | > 25 µM |  |  |  | > 25 | 1.04 | > 25 µM | 2.16 | 9.65 µM and > 25 µM |  | > 25 | 7.17 | > 25
CC(=O)SCCC1c2[nH]c3ccccc3c2CCN1O (centres undefined) |  | > 100 µM |  | > 100 |  | > 100 µM |  | > 100 µM |  |  |  |  |  |  |  | > 100 µM |  | > 100 |  | 
CCC(C)(O)c1cn(-c2cccc(S(=O)(=O)O)c2)nn1 (centres undefined) |  | > 100 µM |  | > 100 |  | > 100 µM |  | > 100 µM |  |  |  |  |  | > 100 µM |  | > 100 µM |  | > 100 |  | 
CCCCn1c(-c2ccc(C(=O)O/N=C(\N)c3ccc(OC)cc3)cc2)nc(-c2ccccc2)c1-c1ccccc1 |  |  |  |  | 0.458 | 1.65 µM |  |  |  |  |  |  |  |  |  |  | 1.29 | 2.71 | 1.92 | 4.59
COc1ccc(C(=O)O)c(Cc2cccc3ccccc23)c1 |  | > 100 µM |  | > 100 |  | > 100 µM |  |  |  |  |  |  |  | > 100 µM |  | > 100 µM |  | > 100 |  | 
Cc1ccc(NC(=O)C2C(=O)N(c3ccc(C)c(C)c3)C(=O)/C2=N/O)cc1C (centres undefined) |  | > 100 µM |  | > 100 |  | > 100 µM |  | > 100 µM |  |  |  |  |  | > 100 µM |  | > 100 µM |  | > 100 |  | 
Nc1c(-c2ccc(Br)cc2)[n+]([O-])c2ccccc2[n+]1[O-] |  | > 100 µM |  | > 100 |  | > 100 µM |  | 78.3 µM |  |  |  |  |  | > 100 µM |  | > 100 µM |  | > 100 |  | 
CCCCC/C=C/C/C=C/CCCCCCCC1=NC(C)(C)CN1C(C)C | 1.47 | 2.79 µM | 1.68 | 3.05 | 1.21 | 2.45 µM |  |  | 1.84 | 3.67 | 5.84 | 23 |  |  | 1.49 | 2.81 µM | 1.3 | 2.57 | 1.97 | 3.98
Cc1c2c(nn1-c1ccc(S(=O)(=O)/N=C3\SCC(=O)N3C(=O)c3ccccc3)cc1)-c1ccccc1CC2 |  |  | 44.6 | > 100 | 67.4 | > 100 µM |  |  |  |  | 38.6 | 92.9 | 26.4 | 58.8 µM | 15.8 | 39.1 µM | 26.6 | 65.9 |  | 
COC(=O)CSc1n[nH]c(-c2ccc(O)c([N+](=O)[O-])c2)n1 |  |  |  | > 100 |  | > 100 µM |  | > 100 µM |  |  |  |  |  | > 100 µM |  | > 100 µM |  | > 100 |  | 
CCOC(=O)NC(=O)c1cn(CCCOC(=O)NCCCCCCNC(=O)OCCCn2c(=O)c(C(=O)NC(=O)OCC)cn(C)c2=O)c(=O)n(C)c1=O |  | > 100 µM |  | > 100 |  | > 100 µM |  | > 100 µM |  |  |  |  |  | > 100 µM |  | > 100 µM |  | > 100 |  | 
O=C1C2=C(CC3C(C2)C3(Br)Br)C(=O)C2=C1CC1C(C2)C1(Br)Br (centres undefined) |  | > 100 µM |  | > 100 |  | > 100 µM |  |  |  |  |  |  |  | > 100 µM |  | > 100 µM |  | > 100 |  | 
C[C@]12CC[C@@H]3c4ccc(O)cc4CC[C@H]3[C@@H]1CC[C@@H]2NS(=O)(=O)c1ccc(C(F)(F)F)cc1 | 1.83 | 3.38 µM | 3.1 | 11.8 | 1.6 | 3.43 µM | 2.51 | 6.79 µM | 2.23 | 6.01 | 1.7 | 3.2 | 1.74 | 3.19 µM |  |  | 2.78 | 8.06 | 2.68 | 6.32
N#Cc1cnsc1 |  | > 100 µM |  | > 100 |  | > 100 µM |  | > 100 µM |  |  |  |  |  | > 100 µM |  | > 100 µM |  | > 100 |  | 
NCCCNCCSSCCCCS(=O)O |  | 35.7 µM |  | 40.6 |  | > 100 µM |  | > 100 µM |  |  |  |  |  | 70.2 µM |  | 44.8 µM |  | > 100 |  | 
Cc1ccc(N=NC(C(=O)c2ccccc2)C(=O)c2ccccc2)cc1 |  | 52.4 µM |  | > 100 |  | 44.4 µM |  | 67.4 µM |  |  |  |  |  | 65.6 µM |  | > 100 µM |  | 85 |  | 
CCCCCCCCCCCCCCCCOP(=O)(O)Oc1ccc(/C=C\c2ccc(OP(=O)(O)OCCCCCCCCCCCCCCCC)cc2)cc1 |  | 33.6 µM |  | > 100 |  | > 100 µM |  | 80 µM |  |  |  |  |  | > 100 µM |  | > 100 µM |  | > 100 |  | 
Cc1cc(NS(=O)(=O)c2ccc(NC(=O)c3cccc4c(=O)c5ccccc5[nH]c34)cc2)no1 |  | > 100 µM |  | > 100 |  | 72.8 µM |  | > 100 µM |  |  |  |  |  | > 100 µM |  | 95.5 µM |  | > 100 |  | 
CC(C)=[CH][Sb]([Br])([CH]=C(C)C)([CH]=C(C)C)[CH]=C(C)C | 1.93 | 5.89 µM | 11.7 | 74.5 | 35.4 | > 100 µM | 0.781 | 38.4 µM |  |  |  |  | 13.9 | 60.4 µM | 2.44 | 59.8 µM | 46.1 | > 100 |  | 
Cc1ccc(C(=O)/C=C/c2ccccc2O)c(C)c1 |  | > 100 µM |  | > 100 |  | > 100 µM |  | > 100 µM |  |  |  |  |  | > 100 µM |  | > 100 µM |  | > 100 |  | 
